Source: patent US11446300B2 (Alexion Pharmaceuticals, Inc., priority 2015, dated 2022)
Where two headings read alike, the source gives them in different places.

Key:
[1] = Phase I study, pharmacokinetics following oral dosing; assay type: in vivo, human; conditions: for Cmax / AUC / half-life / steady-state Cmin to Cmax range: human, plasma
Procedure: A first-in-human study of cerdulatinib in patients with relapsed/refractory CLL/SLL or B-cell non-Hodgkin's lymphoma (NHL) was carried out. […] Patients received a single dose on day 1 for 72 hour PK evaluation. Continuous dosing was initiated on day 4. […] Median age was 67 years (range 23-85) and median prior therapies (tx) was 3 (range 1-8).
Pharmacokinetics (“PK”), pharmacodynamics (“PD”), and safety were monitored. Response was assessed by standard criteria. The level of inhibition of SYK and JAK was determined using a variety of whole blood assays measuring signaling via receptors for the B-cell antigen, IL2, IL4, IL6, and GM-CSF. Serum markers of tumor burden, including CCL3, CCL4, and other markers of inflammation (02M and CRP), were also being measured.

primary CLL cells = assay: Apoptosis in primary CLL samples, propidium iodide/Annexin V staining and PARP cleavage; assay type: cell-based, human
Lyl (OCI-Lyl) = assay: Combination synergy, Cell Titer Glo, 72 hours; assay type: cell-based
Procedure: (§1) Synergistic anti-tumor activity in DLBCL cell lines was determined using the Cell Titer Glo assay. Briefly, 5,000 cells were plated in 96 well plates in complete tissue culture media. […] Cells were incubated with or without drug for 72 hours in a 37° C. tissue culture incubator prior to evaluation by CellTiter Glo as per the manufacturer protocol (Promega). Synergy was evaluated by calculating combination index score, as described elsewhere (Jacquement et al, Molecular Cancer 2012) following IC50 determination using Prism software. The compounds are commercially available or are made according to synthetic methods known to those skilled in the art.
as §1, with “calculating a” for “calculating”

DHL4 (SU-DHL4) = assay: Combination synergy, Cell Titer Glo, 72 hours; assay type: cell-based; conditions: Homo sapiens
Procedure: as §1
as §1, with “calculating a” for “calculating”

DHL10 = assay: Combination synergy, Cell Titer Glo, 72 hours; assay type: cell-based; conditions: DHL10, 72 hours
Procedure: as §1
as §1, with “calculating a” for “calculating”

VAL = assay: Combination synergy, Cell Titer Glo, 72 hours; assay type: cell-based; conditions: VAL, 72 hours
Procedure: as §1
as §1, with “calculating a” for “calculating”

DHL6 = assay: Combination synergy, Cell Titer Glo, 72 hours; assay type: cell-based; conditions: DHL6, 72 hours
Procedure: as §1
as §1, with “calculating a” for “calculating”

[2] = 15 mg/twice daily oral, Table 2, n=28
[3] = 15 mg/twice daily, Table 3, n=43
[4] = 20 mg/twice daily oral, Table 2, n=28
[5] = 20 mg/twice daily, Table 3, n=43
[6] = 45 mg/day oral, PK outlier removed, Table 2, n=28
[7] = 45 mg/twice daily, Table 3, n=43
[8] = 100 mg/day (one patient), Table 3
[9] = single agents and cerdulatinib:ABT-199 ratios
[10] = single agents and cerdulatinib:ibrutinib ratios

CCS(=O)(=O)N1CCN(c2ccc(Nc3ncc(C(N)=O)c(NC4CC4)n3)cc2)CC1 [Cerdulatinib, 4-(cyclopropylamino)-2-(4-(4-(ethylsulfonyl)piperazin-1-yl)phenylamino)pyrimidine-5-carboxamide]
SS Cave ([1]; 15 mg/day oral, Table 2, n=28): 190 nM | SS Cave ([1]; 15 mg/day, Table 3, n=43): 190 nM | SS Cmin ([1]; 15 mg/day, Table 3, n=43): 120 nM | SS Cave [1, 2]: 390 nM | SS Cave [1, 3]: 390 nM | SS Cmin [1, 3]: 290 nM | SS Cave [1, 4]: 520 nM | SS Cave [1, 5]: 520 nM | SS Cmin [1, 5]: 380 nM | SS Cave ([1]; 30 mg/day oral, Table 2, n=28): 310 nM | SS Cmin ([1]; 30 mg/day oral, Table 2, n=28): 210 nM | SS Cave ([1]; 30 mg/day, Table 3, n=43): 310 nM | SS Cmin ([1]; 30 mg/day, Table 3, n=43): 210 nM | SS Cave ([1]; 40 mg/day oral, Table 2, n=28): 1140 nM | SS Cmin ([1]; 40 mg/day oral, Table 2, n=28): 870 nM | SS Cave ([1]; 40 mg/day, Table 3, n=43): 1140 nM | SS Cmin ([1]; 40 mg/day, Table 3, n=43): 870 nM | SS Cave [1, 6]: 1110 nM | SS Cmin [1, 6]: 820 nM | SS Cave ([1]; 45 mg/day, Table 3, n=43): 1110 nM | SS Cmin ([1]; 45 mg/day, Table 3, n=43): 820 nM | SS Cave [1, 7]: 1500 nM | SS Cmin [1, 7]: 1480 nM | SS Cave ([1]; 50 mg/day oral, Table 2, n=28): 1310 nM | SS Cave ([1]; 50 mg/day, Table 3, n=43): 990 nM | SS Cmin ([1]; 50 mg/day, Table 3, n=43): 790 nM | SS Cave ([1]; 65 mg/day, Table 3, n=43): 1010 nM | SS Cmin ([1]; 65 mg/day, Table 3, n=43): 760 nM | SS Cave [1, 8]: 680 nM | SS Cmin [1, 8]: 370 nM | Cmax ([1]; oral, 15 mg/day, Table 3, n=43, read-out: SS Cmax): 380 nM | Cmax ([1]; oral, 15 mg/twice daily, Table 3, n=43, read-out: SS Cmax): 530 nM | Cmax ([1]; oral, 20 mg/twice daily, Table 3, n=43, read-out: SS Cmax): 890 nM | Cmax ([1]; oral, 30 mg/day, Table 3, n=43, read-out: SS Cmax): 630 nM | Cmax ([1]; oral, 40 mg/day, Table 3, n=43, read-out: SS Cmax): 1480 nM | Cmax ([1]; oral, 45 mg, 45 mg BID, n=20, read-out: Cmax): 2160 ± 500 nM | Cmax ([1]; oral, 45 mg/day, Table 3, n=43, read-out: SS Cmax): 1690 nM | Cmax ([1]; oral, 45 mg/day, outlier removed from the group, read-out: steady state Cmax of PK outlier): 150 nM | Cmax ([1]; oral, 45 mg/twice daily, Table 3, n=43, read-out: SS Cmax): 1800 nM | Cmax ([1]; oral, 50 mg/day, Table 3, n=43, read-out: SS Cmax): 1570 nM | Cmax ([1]; oral, 65 mg/day, Table 3, n=43, read-out: SS Cmax): 1670 nM | Cmax ([1]; oral, 65 mg, read-out: steady state Cmax): ~2000 nM | Cmax ([1]; oral, 100 mg/day, 100 mg/day (one patient), Table 3, read-out: SS Cmax): 1110 nM | Cmax ([1]; oral, 40-100 mg QD doses, read-out: average steady state (SS) Cmax): 1630 ± 560 nM | AUC ([1]; oral, 15 mg/day, Table 3, n=43): 4.5 ± 0.8 µM·h | half-life ([1]; oral, 15 mg/day, Table 3, n=43, read-out: T1/2 (converted)): 11.5 h | AUC ([1]; oral, 15 mg/twice daily, Table 3, n=43): 4.7 ± 1.3 µM·h | half-life ([1]; oral, 15 mg/twice daily, Table 3, n=43, read-out: T1/2 (converted)): 11.2 h | AUC ([1]; oral, 20 mg/twice daily, Table 3, n=43): 6.2 ± 1 µM·h | half-life ([1]; oral, 20 mg/twice daily, Table 3, n=43, read-out: T1/2 (converted)): 8.4 h | AUC ([1]; oral, 30 mg/day, Table 3, n=43): 7.5 ± 3 µM·h | half-life ([1]; oral, 30 mg/day, Table 3, n=43, read-out: T1/2 (converted)): 12.3 h | AUC ([1]; oral, 40 mg/day, Table 3, n=43): 27.3 ± 0.8 µM·h | half-life ([1]; oral, 40 mg/day, Table 3, n=43, read-out: T1/2 (converted)): 32.8 h | AUC ([1]; oral, 45 mg BID, n=20): 33.3 ± 15.9 µM·h | half-life ([1]; oral, 45 mg BID, n=20, read-out: T1/2 (converted)): 27.5 ± 22.5 h | AUC ([1]; oral, 45 mg/day, Table 3, n=43): 26.6 ± 13.9 µM·h | half-life ([1]; oral, 45 mg/day, Table 3, n=43, read-out: T1/2 (converted)): 22.3 h | AUC ([1]; oral, 50 mg/day, Table 3, n=43): 23.8 ± 14.9 µM·h | half-life ([1]; oral, 50 mg/day, Table 3, n=43, read-out: T1/2 (converted)): 39 h | AUC ([1]; oral, 65 mg/day, Table 3, n=43): 24.2 ± 0.7 µM·h | half-life ([1]; oral, 65 mg/day, Table 3, n=43, read-out: T1/2 (converted)): 25.1 h | AUC ([1]; oral, 100 mg/day (one patient), Table 3): 16.3 µM·h | half-life ([1]; oral, 100 mg/day (one patient), Table 3, read-out: T1/2 (converted)): 14.4 h | half-life ([1]; oral, once daily dosing, read-out: half-life): 12 to 16 h | Cmax ([1]; po, 15 mg twice daily, 15 mg/twice daily oral, Table 2, n=28, read-out: SS Cmax): 530 nM | Cmax ([1]; po, 15 mg/day, 15 mg/day oral, Table 2, n=28, read-out: SS Cmax): 380 nM | Cmax ([1]; po, 20 mg twice daily, 20 mg/twice daily oral, Table 2, n=28, read-out: SS Cmax): 890 nM | Cmax ([1]; po, 30 mg/day, 30 mg/day oral, Table 2, n=28, read-out: SS Cmax): 630 nM | Cmax ([1]; po, 40 mg/day, 40 mg/day oral, Table 2, n=28, read-out: SS Cmax): 1480 nM | Cmax ([1]; po, 45 mg/day, 45 mg/day oral, PK outlier removed, Table 2, n=28, read-out: SS Cmax): 1690 nM | Cmax ([1]; po, 50 mg/day, 50 mg/day oral, Table 2, n=28, read-out: SS Cmax): 2070 nM | steady-state Cmin to Cmax range ([1]; po, 65 mg, Patient 1, 65 mg PO QD): 730 to 1740 nM | steady-state Cmin to Cmax range ([1]; po, Patient 2, 45 mg PO QD reduced to 30 mg): 250 to 630 nM | AUC ([1]; 15 mg/day oral, Table 2, n=28): 4.5 µM·h | half-life ([1]; 15 mg/day oral, Table 2, n=28, read-out: T1/2 (converted)): 11.5 h | AUC [1, 2]: 4.7 µM·h | half-life ([1]; 15 mg/twice daily oral, Table 2, n=28, read-out: T1/2 (converted)): 11.2 h | AUC [1, 4]: 6.2 µM·h | half-life ([1]; 20 mg/twice daily oral, Table 2, n=28, read-out: T1/2 (converted)): 8.4 h | AUC ([1]; 30 mg/day oral, Table 2, n=28): 7.5 µM·h | half-life ([1]; 30 mg/day oral, Table 2, n=28, read-out: T1/2 (converted)): 12.3 h | AUC ([1]; 40 mg/day oral, Table 2, n=28): 27.3 µM·h | half-life ([1]; 40 mg/day oral, Table 2, n=28, read-out: T1/2 (converted)): 32.8 h | AUC [1, 6]: 26.6 µM·h | half-life ([1]; 45 mg/day oral, PK outlier removed, Table 2, n=28, read-out: T1/2 (converted)): 22.3 h | AUC ([1]; 50 mg/day oral, Table 2, n=28): 31.4 µM·h | concentrations achievable in patients ([1]; in vivo): ~2200 nM | 85 kDa PARP sub-fragment (primary CLL cells): increased levels | apoptosis in CLL cells with high CD49d or ZAP70 expression (>30%) compared to low (<30%) (primary CLL cells): significantly greater apoptosis | apoptosis in U-CLL compared to M-CLL (primary CLL cells): significantly greater apoptosis | cleavage/activation of caspase 3 protein (primary CLL cells): induce cleavage/activation | IC50 (Lyl (OCI-Lyl)): 4300 nM | IC50 (DHL4 (SU-DHL4); SU-DHL-4, 72 h, DHL4, 72 hours, single agents and cerdulatinib:ABT-199 ratios, read-out: IC50): 1490 nM | IC50 (DHL4 (SU-DHL4); SU-DHL-4, 72 h, DHL4, 72 hours, single agents and cerdulatinib:ibrutinib ratios, read-out: IC50): 1700 nM | IC50 (DHL4 (SU-DHL4); SU-DHL-4, SU-DHL4 cell line, read-out: IC50 value): 1490 nM | IC50 (DHL10; [9]): 300 nM | IC50 (DHL10; [10]): 220 nM | IC50 (VAL; [9]): 1300 nM | IC50 (VAL; [10]): 1330 nM | IC50 (DHL6; [9]): 620 nM | IC50 (DHL6; [10]): 560 nM
